Laboratory results as given in patent publication US20240025893A1, “PYRIMIDINE-AND NITROGEN-CONTAINING BICYCLIC COMPOUND” (Asahi Kasei Pharma Corporation, priority 2020, published 2024).

Key:
[1] = tested on: LPS-stimulated TNFα production in THP-1 cells; experiment: LPS-stimulated TNFα production inhibition test using human acute monocytic leukemia cell strain THP-1; format: cell-based; conditions: Homo sapiens, THP-1, 4 h, LPS 2.5 ng/mL, average values
Procedure, shortened: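 THP-1 cells were preincubated with compound for 1 h at 37 °C, then stimulated with LPS (2.5 ng/mL final) for 4 h. Supernatant TNFα was quantified by HTRF (620/665 nm ratio) against a calibration curve. IC50 came from a 4-parameter logistic fit, with no-LPS set as 100% and no-compound as 0% suppression.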

human IRAK-4 = human IRAK-4 (Homo sapiens (Human), UniProt Q9NWZ3); experiment: Measurement of human IRAK-4 inhibitory activity (TR-FRET, peptide substrate phosphorylation, 10 μM ATP); format: biochemical; conditions: 1 nM IRAK-4, 10 μM ATP, 23° C., 30 minutes; average values
Sequence of human IRAK-4 (Q9NWZ3 whole entry): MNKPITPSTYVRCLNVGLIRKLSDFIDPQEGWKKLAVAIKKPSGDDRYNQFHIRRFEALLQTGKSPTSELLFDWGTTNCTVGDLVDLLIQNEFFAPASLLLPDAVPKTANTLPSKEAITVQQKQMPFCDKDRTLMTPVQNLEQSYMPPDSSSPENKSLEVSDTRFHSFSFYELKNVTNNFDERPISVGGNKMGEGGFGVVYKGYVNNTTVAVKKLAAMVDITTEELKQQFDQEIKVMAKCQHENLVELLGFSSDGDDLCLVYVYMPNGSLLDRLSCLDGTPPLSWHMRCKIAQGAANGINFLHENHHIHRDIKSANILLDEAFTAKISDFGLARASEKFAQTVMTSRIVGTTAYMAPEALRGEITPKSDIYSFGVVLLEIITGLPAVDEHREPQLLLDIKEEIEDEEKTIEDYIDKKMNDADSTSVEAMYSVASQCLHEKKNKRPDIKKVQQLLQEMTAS
Procedure, shortened: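 With 1 nM IRAK-4, 0.5 μM biotinylated peptide and 10 μM ATP, compound incubated 30 min at 23 °C in 50 mM HEPES pH 7.2 with Mg2+/Mn2+. Stopped with EDTA plus europium-cryptate anti-phosphopeptide antibody and streptavidin-XL665, 60 min at 23 °C. Activity taken as the 665/620 nm TR-FRET ratio.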

Compound | IC50 [1] [nM] | IC50 (human IRAK-4) [nM]
COCC(=O)N1CCN([C@H]2C[C@@H](C(=O)Nc3nc4ccc(-c5cnc(CO[C@H]6CCC[C@@H]6O)nc5)c(OC)c4s3)C2)[C@@H](C)C1 [c-03-03] | 230 | 2.54
COCCOCC(=O)N1CCN([C@H]2C[C@@H](C(=O)Nc3nc4ccc(-c5cnc(CO[C@H]6CCC[C@@H]6O)nc5)c(OC)c4s3)C2)[C@@H](C)C1 [c-03-04] | 320 | 2.69
CCOc1c(-c2cnc(CO[C@H]3CCC[C@@H]3O)nc2)ccc2nc(NC(=O)C3CC3)sc12 [c-04-02] | 207 | 6.33
COCCOc1c(-c2cnc(CO[C@H]3CCC[C@@H]3O)nc2)ccc2nc(NC(=O)C3CC3)sc12 [c-04-03] | 184 | 12.4
CN1CC(F)(COc2c(-c3cnc(CO[C@H]4CCC[C@@H]4O)nc3)ccc3nc(NC(=O)C4CC4)sc23)C1 [c-05-01, N-(7-((3-Fluoro-1-methylazetidin-3-yl)methoxy)-6-(2-((((1S,2S)-2-hydroxycyclopentyl)oxy)methyl)pyrimidin-5-yl)benzo[d]thiazol-2-yl)cyclopropanecarboxamide] | 233 | 5.48
O=C(Nc1nc2ccc(-c3cnc(CO[C@H]4CCC[C@@H]4O)nc3)c(OCCO)c2s1)C1CC1 [c-06-01, N-(6-(2-((((1S,2S)-2-Hydroxycyclopentyl)oxy)methyl)pyrimidin-5-yl)-7-(2-hydroxyethoxy)benzo[d]thiazol-2-yl)cyclopropanecarboxamide] | 358 | 5.45
O=C(Nc1nc2ccc(-c3cnc(CO[C@H]4CCC[C@@H]4O)nc3)c(OCc3nccs3)c2s1)C1CC1 [c-06-02] | 317 | 10.7
O=C(Nc1nc2ccc(-c3cnc(CO[C@H]4CCC[C@@H]4O)nc3)c(OC[C@H]3CCOC3)c2s1)C1CC1 [c-06-03] | 277 | 17.1
Cc1c(-c2cnc(CO[C@H]3CCC[C@@H]3O)nc2)ccc2nc(NC(=O)C3CC3)sc12 [c-07-01] | 347 | 6.48
C[C@]1(O)C[C@@H](C(=O)Nc2nc3ccc(-c4cnc(CO[C@H]5CCC[C@@H]5O)nc4)cc3s2)C1 [d-01-02] | 165 | 2.75
CO[C@]1(C)C[C@H](C(=O)Nc2nc3ccc(-c4cnc(CO[C@H]5CCC[C@@H]5O)nc4)cc3s2)C1 [d-01-03] | 175 | 2.16
CC(C)(C)OC(=O)N1CC2(CC(C(=O)Nc3nc4ccc(-c5cnc(CO[C@H]6CCC[C@@H]6O)nc5)cc4s3)C2)C1 [d-01-04] | 178 | 6.39
O=C(Nc1nc2ccc(-c3cnc(CO[C@H]4CCC[C@@H]4O)nc3)cc2s1)C1CC2(C1)CC(F)(F)C2 [d-01-06] | 174 | 3.62
O=C(Nc1nc2ccc(-c3cnc(CO[C@H]4CCC[C@@H]4O)nc3)cc2s1)C1CC2(COC2)C1 [d-01-07] | 184 | 1.75
C[C@]1(F)C[C@H](C(=O)Nc2nc3ccc(-c4cnc(CO[C@H]5CCC[C@@H]5O)nc4)cc3s2)C1 [d-01-08] | 202 | 2.89
CC(C)(C)O[C@H]1C[C@@H](C(=O)Nc2nc3ccc(-c4cnc(CO[C@H]5CCC[C@@H]5O)nc4)cc3s2)C1 [d-02-01, (1s,3s)-3-(tert-Butoxy)-N-(6-(2-((((1S,2S)-2-hydroxycyclopentyl)oxy)methyl)pyrimidin-5-yl)benzo[d]thiazol-2-yl)cyclobutane-1-carboxamide] | 77 | 1.83
CCO[C@H]1C[C@@H](C(=O)Nc2nc3ccc(-c4cnc(CO[C@H]5CCC[C@@H]5O)nc4)cc3s2)C1 [d-04-01, (1s,3s)-3-Ethoxy-N-(6-(2-((((1S,2S)-2-hydroxycyclopentyl)oxy)methyl)pyrimidin-5-yl)benzo[d]thiazol-2-yl)cyclobutane-1-carboxamide] | 182 | 2.1
COCCO[C@H]1C[C@@H](C(=O)Nc2nc3ccc(-c4cnc(CO[C@H]5CCC[C@@H]5O)nc4)cc3s2)C1 [d-04-02] | 207 | 2.48
CCCO[C@H]1C[C@@H](C(=O)Nc2nc3ccc(-c4cnc(CO[C@H]5CCC[C@@H]5O)nc4)cc3s2)C1 [d-04-03] | 162 | 2.22
CN(C)CC1CC(C(=O)Nc2nc3ccc(-c4cnc(CO[C@H]5CCC[C@@H]5O)nc4)cc3s2)C1 (stereo partly drawn) [d-05-01, 3-((Dimethylamino)methyl)-N-(6-(2-((((1S,2S)-2-hydroxycyclopentyl)oxy)methyl)pyrimidin-5-yl)benzo[d]thiazol-2-yl)cyclobutane-1-carboxamide] | 182 | 1.51
O=C(Nc1nc2ccc(-c3cnc(CO[C@H]4CCC[C@@H]4O)nc3)cc2s1)C1CC(CN2CC(F)C2)C1 (stereo partly drawn) [d-05-02] | 223 | 2.1
O=C(Nc1cc2cc(-c3cnc(CO[C@H]4CCC[C@@H]4O)nc3)ccn2n1)C1CC1 [e-01-01, N-(5-(2-((((1S,2S)-2-hydroxycyclopentyl)oxy)methyl)pyrimidin-5-yl)pyrazolo[1,5-a]pyridin-2-yl)cyclopropanecarboxamide] | 279 | 2.89
O=C(Nc1cc2cc(-c3cnc(CO[C@H]4CCC[C@@H]4O)nc3)ccn2n1)[C@@H]1C[C@H]1F [e-01-02] | 225 | 2.48
C[C@@H]1C[C@H]1C(=O)Nc1cc2cc(-c3cnc(CO[C@H]4CCC[C@@H]4O)nc3)ccn2n1 [e-01-03] | 171 | 1.03

Second part, the compound after the results:

IC50 [1] [nM] | IC50 (human IRAK-4) [nM] | Compound
13 | 2.36 | COc1c(-c2cnc(CO[C@H]3CCC[C@@H]3O)nc2)ccc2nc(NC(=O)[C@H]3C[C@@H](N4CCN(C(=O)c5ccnc(C)c5)C[C@@H]4C)C3)sc12 [c-03-02, (1R,3s)-N-(6-(2-((((1S,2S)-2-Hydroxycyclopentyl)oxy)methyl)pyrimidin-5-yl)-7-methoxybenzo[d]thiazol-2-yl)-3-((S)-2-methyl-4-(2-methylisonicotinoyl)piperazin-1-yl)cyclobutane-1-carboxamide]
115 | 4.04 | COc1c(-c2cnc(CO[C@H]3CC(F)(F)C[C@@H]3O)nc2)ccc2nc(NC(=O)C3CC3)sc12 [c-04-01, N-(6-(2-((((1S,2S)-4,4-Difluoro-2-hydroxycyclopentyl)oxy)methyl)pyrimidin-5-yl)-7-methoxybenzo[d]thiazol-2-yl)cyclopropanecarboxamide]
85 | 1.31 | C[C@@H]1C[C@H]1C(=O)Nc1nc2ccc(-c3cnc(CO[C@H]4CCC[C@@H]4O)nc3)cc2s1 [d-01-01, (1R,2R)—N-(6-(2-((((1S,2S)-2-Hydroxycyclopentyl)oxy)methyl)pyrimidin-5-yl)benzo[d]thiazol-2-yl)-2-methylcyclopropane-1-carboxamide]
101 | 2.07 | O=C(Nc1nc2ccc(-c3cnc(CO[C@H]4CCC[C@@H]4O)nc3)cc2s1)C1CC2(CCOCC2)C1 [d-01-05]
67 | 1.38 | CC(=O)N1CCC2(CC1)CC(C(=O)Nc1nc3ccc(-c4cnc(CO[C@H]5CCC[C@@H]5O)nc4)cc3s1)C2 [d-03-01, 7-Acetyl-N-(6-(2-((((1S,2S)-2-hydroxycyclopentyl)oxy)methyl)pyrimidin-5-yl)benzo[d]thiazol-2-yl)-7-azaspiro[3,5]nonane-2-carboxamide]
93 | 2.52 | CC(C)C(=O)N1CCC2(CC1)CC(C(=O)Nc1nc3ccc(-c4cnc(CO[C@H]5CCC[C@@H]5O)nc4)cc3s1)C2 [d-03-05]
125 | 0.849 | O=C(Nc1nc2ccc(-c3cnc(CO[C@H]4CCC[C@@H]4O)nc3)cc2s1)C1CC2(CCN(C(=O)c3ccccn3)CC2)C1 [d-03-06]
139 | 0.852 | O=C(Nc1nc2ccc(-c3cnc(CO[C@H]4CCC[C@@H]4O)nc3)cc2s1)C1CC2(CCN(C(=O)c3cccnc3)CC2)C1 [d-03-07]
137 | 1.28 | O=C(Nc1nc2ccc(-c3cnc(CO[C@H]4CCC[C@@H]4O)nc3)cc2s1)C1CC2(CCN(CC(F)(F)F)CC2)C1 [d-03-08]
158 | 1.47 | O=C(Nc1nc2ccc(-c3cnc(CO[C@H]4CCC[C@@H]4O)nc3)cc2s1)C1CC2(CCN(C(=O)C3COC3)CC2)C1 [d-03-09]
145 | 2.05 | O=C(Nc1nc2ccc(-c3cnc(CO[C@H]4CCC[C@@H]4O)nc3)cc2s1)[C@H]1C[C@@H](OCc2ccncc2)C1 [d-04-05]
77 | 1.43 | Cc1cc(C(=O)N2CCN([C@H]3C[C@@H](C(=O)Nc4cc5cc(-c6cnc(CO[C@H]7CCC[C@@H]7O)nc6)ccn5n4)C3)[C@@H](C)C2)ccn1 [e-02-01, (1R,3s)-N-(5-(2-((((1S,2S)-2-Hydroxycyclopentyl)oxy)methyl)pyrimidin-5-yl)pyrazolo[1,5-a]pyridin-2-yl)-3-((S)-2-methyl-4-(2-methylisonicotinoyl)piperazin-1-yl)cyclobutane-1-carboxamide]
123 | 1.38 | C[C@H]1CN(C(=O)c2cccnc2)CCN1[C@H]1C[C@@H](C(=O)Nc2cc3cc(-c4cnc(CO[C@H]5CCC[C@@H]5O)nc4)ccn3n2)C1 [e-02-02]
67 | 2.23 | C[C@H]1CN(C(=O)c2ccc(C(F)(F)F)nc2)CCN1[C@H]1C[C@@H](C(=O)Nc2cc3cc(-c4cnc(CO[C@H]5CCC[C@@H]5O)nc4)ccn3n2)C1 [e-02-03]
116 | 1.05 | C[C@H]1CN(CC(F)(F)F)CCN1[C@H]1C[C@@H](C(=O)Nc2cc3cc(-c4cnc(CO[C@H]5CCC[C@@H]5O)nc4)ccn3n2)C1 [e-02-04]
123 | 1.14 | CCC(=O)N1CCN([C@H]2C[C@@H](C(=O)Nc3cc4cc(-c5cnc(CO[C@H]6CCC[C@@H]6O)nc5)ccn4n3)C2)[C@@H](C)C1 [e-02-05]
